# Source: ChEMBL document CHEMBL3885861, “Open TG-GATES”
# Species: Rattus norvegicus
# Test: Open TG-GATES - Regimen: Daily Repeat
# Format: toxicity, organism-based, Sprague-Dawley
# Set-up: regimen Daily Repeat, gender Male, age 6 weeks
# Details: in vivo, po, 10 mg/kg, route gavage, dose level Low; for APTT / Bas / Eos / Fbg / Hb / Ht / Lym / MCH / MCHC / MCV / Mono / Neu / PT / Plat / RBC / Ret / WBC: tissue Blood; for KIDNEY_L / KIDNEY_R / KIDNEY_TOTAL: tissue Kidney; for LIVER: tissue Liver; for A/G / ALP / ALT / AST / BUN / CRE / Ca / Cl / DBIL / GLC / IP / K / LDH / Na / PL / RALB / TBIL / TC / TG / TP / gamma-GTP: tissue Plasma
compound,measurement,setting,value
Nc1ccc(Cc2ccc(N)cc2)cc1,TERMINAL_BW,"72 h, time 3 day",237.7 g
same,APTT,"72 h, time 3 day",13.9 s
same,Bas,"72 h, time 3 day",0.2%
same,Eos,"72 h, time 3 day",0.8%
same,Fbg,"72 h, time 3 day",280.2 mg/dL
same,Hb,"72 h, time 3 day",13.3 g/dL
same,Ht,"72 h, time 3 day",38.9%
same,Lym,"72 h, time 3 day",75%
same,MCH,"72 h, time 3 day",21.1 pg
same,MCHC,"72 h, time 3 day",34.2%
same,MCV,"72 h, time 3 day",61.5 fL
same,Mono,"72 h, time 3 day",2.4%
same,Neu,"72 h, time 3 day",20.8%
same,PT,"72 h, time 3 day",11.9 s
same,Plat,"72 h, time 3 day",149.6 x10_4/uL
same,RBC,"72 h, time 3 day",632.8 x10_4/ul
same,Ret,"72 h, time 3 day",5.9%
same,WBC,"72 h, time 3 day",114.1 x10_2/uL
same,KIDNEY_L,"72 h, time 3 day",1 g
same,KIDNEY_R,"72 h, time 3 day",1 g
same,KIDNEY_TOTAL,"72 h, time 3 day",1.9 g
same,LIVER,"72 h, time 3 day",11.4 g
same,A/G,"72 h, time 3 day",0.8
same,ALP,"72 h, time 3 day",1752.4 IU/L
same,ALT,"72 h, time 3 day",41 IU/L
same,AST,"72 h, time 3 day",68.6 IU/L
same,BUN,"72 h, time 3 day",16.2 mg/dL
same,CRE,"72 h, time 3 day",0.2 mg/dL
same,Ca,"72 h, time 3 day",10.9 mg/dL
same,Cl,"72 h, time 3 day",106.6 meq/L
same,DBIL,"72 h, time 3 day",0.018 mg/dL
same,GLC,"72 h, time 3 day",181.4 mg/dL
same,IP,"72 h, time 3 day",7.7 mg/dL
same,K,"72 h, time 3 day",4.1 meq/L
same,LDH,"72 h, time 3 day",63 IU/L
same,Na,"72 h, time 3 day",143.6 meq/L
same,PL,"72 h, time 3 day",146.2 mg/dL
same,RALB,"72 h, time 3 day",2.7 g/dL
same,TBIL,"72 h, time 3 day",0.032 mg/dL
same,TC,"72 h, time 3 day",78.4 mg/dL
same,TG,"72 h, time 3 day",114.4 mg/dL
same,TP,"72 h, time 3 day",6 g/dL
same,gamma-GTP,"72 h, time 3 day",1 IU/L
same,TERMINAL_BW,"[…], time 7 day",279.3 g
same,TERMINAL_BW,"[…], time 14 day",335.7 g
same,TERMINAL_BW,"[…], time 28 day",440.9 g
same,APTT,"[…], time 7 day",13.6 s
same,Bas,"[…], time 7 day",0.2%
same,Eos,"[…], time 7 day",0.4%
same,Fbg,"[…], time 7 day",279.2 mg/dL
same,Hb,"[…], time 7 day",13.4 g/dL
same,Ht,"[…], time 7 day",39.2%
same,Lym,"[…], time 7 day",69.8%
same,MCH,"[…], time 7 day",20.6 pg
same,MCHC,"[…], time 7 day",34.1%
same,MCV,"[…], time 7 day",60.6 fL
same,Mono,"[…], time 7 day",2.8%
same,Neu,"[…], time 7 day",26.2%
same,PT,"[…], time 7 day",11.3 s
same,Plat,"[…], time 7 day",144.1 x10_4/uL
same,RBC,"[…], time 7 day",648 x10_4/ul
same,Ret,"[…], time 7 day",5.5%
same,WBC,"[…], time 7 day",107.7 x10_2/uL
same,APTT,"[…], time 14 day",15.6 s
same,Bas,"[…], time 14 day",0%
same,Eos,"[…], time 14 day",0.8%
same,Fbg,"[…], time 14 day",283.8 mg/dL
same,Hb,"[…], time 14 day",14.1 g/dL
same,Ht,"[…], time 14 day",40.9%
same,Lym,"[…], time 14 day",78%
same,MCH,"[…], time 14 day",20.6 pg
same,MCHC,"[…], time 14 day",34.6%
same,MCV,"[…], time 14 day",59.5 fL
same,Mono,"[…], time 14 day",1.8%
same,Neu,"[…], time 14 day",19%
same,PT,"[…], time 14 day",11.5 s
same,Plat,"[…], time 14 day",146.2 x10_4/uL
same,RBC,"[…], time 14 day",687 x10_4/ul
same,Ret,"[…], time 14 day",4.3%
same,WBC,"[…], time 14 day",125.5 x10_2/uL
same,APTT,"[…], time 28 day",16.1 s
same,Bas,"[…], time 28 day",0.2%
same,Eos,"[…], time 28 day",1%
same,Fbg,"[…], time 28 day",270.4 mg/dL
same,Hb,"[…], time 28 day",14.7 g/dL
same,Ht,"[…], time 28 day",41.8%
same,Lym,"[…], time 28 day",77.6%
same,MCH,"[…], time 28 day",19.6 pg
same,MCHC,"[…], time 28 day",35.1%
same,MCV,"[…], time 28 day",55.7 fL
same,Mono,"[…], time 28 day",1.4%
same,Neu,"[…], time 28 day",19.2%
same,PT,"[…], time 28 day",11.9 s
same,Plat,"[…], time 28 day",114.6 x10_4/uL
same,RBC,"[…], time 28 day",750.8 x10_4/ul
same,Ret,"[…], time 28 day",2.7%
same,WBC,"[…], time 28 day",114 x10_2/uL
same,KIDNEY_L,"[…], time 7 day",1.1 g
same,KIDNEY_R,"[…], time 7 day",1.1 g
same,KIDNEY_TOTAL,"[…], time 7 day",2.2 g
same,KIDNEY_L,"[…], time 14 day",1.2 g
same,KIDNEY_R,"[…], time 14 day",1.2 g
same,KIDNEY_TOTAL,"[…], time 14 day",2.3 g
same,KIDNEY_L,"[…], time 28 day",1.4 g
same,KIDNEY_R,"[…], time 28 day",1.4 g
same,KIDNEY_TOTAL,"[…], time 28 day",2.8 g
same,LIVER,"[…], time 7 day",13 g
same,LIVER,"[…], time 14 day",15.9 g
same,LIVER,"[…], time 28 day",17.9 g
same,A/G,"[…], time 7 day",0.8
same,ALP,"[…], time 7 day",1642 IU/L
same,ALT,"[…], time 7 day",40.8 IU/L
same,AST,"[…], time 7 day",65 IU/L
same,BUN,"[…], time 7 day",16.8 mg/dL
same,CRE,"[…], time 7 day",0.2 mg/dL
same,Ca,"[…], time 7 day",11.4 mg/dL
same,Cl,"[…], time 7 day",104.6 meq/L
same,DBIL,"[…], time 7 day",0.026 mg/dL
same,GLC,"[…], time 7 day",182 mg/dL
same,IP,"[…], time 7 day",7.2 mg/dL
same,K,"[…], time 7 day",4.2 meq/L
same,LDH,"[…], time 7 day",60.6 IU/L
same,Na,"[…], time 7 day",143.6 meq/L
same,PL,"[…], time 7 day",143.8 mg/dL
same,RALB,"[…], time 7 day",2.7 g/dL
same,TBIL,"[…], time 7 day",0.07 mg/dL
same,TC,"[…], time 7 day",75.4 mg/dL
same,TG,"[…], time 7 day",105.6 mg/dL
same,TP,"[…], time 7 day",6 g/dL
same,gamma-GTP,"[…], time 7 day",1.4 IU/L
same,A/G,"[…], time 14 day",0.8
same,ALP,"[…], time 14 day",1500.2 IU/L
same,ALT,"[…], time 14 day",38.8 IU/L
same,AST,"[…], time 14 day",64.6 IU/L
same,BUN,"[…], time 14 day",17 mg/dL
same,CRE,"[…], time 14 day",0.2 mg/dL
same,Ca,"[…], time 14 day",11.1 mg/dL
same,Cl,"[…], time 14 day",104.8 meq/L
same,DBIL,"[…], time 14 day",0.02 mg/dL
same,GLC,"[…], time 14 day",174.4 mg/dL
same,IP,"[…], time 14 day",7.1 mg/dL
same,K,"[…], time 14 day",3.8 meq/L
same,LDH,"[…], time 14 day",72.4 IU/L
same,Na,"[…], time 14 day",143.2 meq/L
same,PL,"[…], time 14 day",146.4 mg/dL
same,RALB,"[…], time 14 day",2.7 g/dL
same,TBIL,"[…], time 14 day",0.05 mg/dL
same,TC,"[…], time 14 day",70.4 mg/dL
same,TG,"[…], time 14 day",145 mg/dL
same,TP,"[…], time 14 day",6.2 g/dL
same,gamma-GTP,"[…], time 14 day",1 IU/L
same,A/G,"[…], time 28 day",0.8
same,ALP,"[…], time 28 day",1150 IU/L
same,ALT,"[…], time 28 day",34.2 IU/L
same,AST,"[…], time 28 day",57.6 IU/L
same,BUN,"[…], time 28 day",16 mg/dL
same,CRE,"[…], time 28 day",0.2 mg/dL
same,Ca,"[…], time 28 day",10.9 mg/dL
same,Cl,"[…], time 28 day",105.4 meq/L
same,DBIL,"[…], time 28 day",0.02 mg/dL
same,GLC,"[…], time 28 day",177.6 mg/dL
same,IP,"[…], time 28 day",6.5 mg/dL
same,K,"[…], time 28 day",4 meq/L
same,LDH,"[…], time 28 day",64 IU/L
same,Na,"[…], time 28 day",144.4 meq/L
same,PL,"[…], time 28 day",133 mg/dL
same,RALB,"[…], time 28 day",2.7 g/dL
same,TBIL,"[…], time 28 day",0.056 mg/dL
same,TC,"[…], time 28 day",67 mg/dL
same,TG,"[…], time 28 day",112.4 mg/dL
same,TP,"[…], time 28 day",6.4 g/dL
same,gamma-GTP,"[…], time 28 day",1 IU/L
